Laboratory results taken from ChEMBL document CHEMBL1201862, “PubChem BioAssay data set” (2004).
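All cell lines were grown in 96-well plates and treated with compound for 48 hours. At the GI50, growth is halved.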 Activity calls are given as the source filed them. Rule as the data show it: active = GI50 up to about 1.1 µM and inactive = higher.

Tests used:
Test in all cases: NCI-60 cell line screen, 48 h
[1] = system: HL-60
[2] = system: SK-MEL-5
[3] = system: COLO 205
[4] = system: RPMI-8226
[5] = system: DU-145
[6] = system: Hs-578T
[7] = system: NCI-H226
[8] = system: EKVX
[9] = system: NCI-H522
[10] = system: OVCAR-4
[11] = system: PC-3
[12] = system: BT-549
[13] = system: SK-OV-3
[14] = system: 786-0
[15] = system: HCC 2998
[16] = system: A498
[17] = system: HOP-62
[18] = system: U-251
[19] = system: NCI-H460

Measured: GI50

Cc1ccccc1N1C(N)=C(C#N)C(C#N)(C#N)C1c1ccccc1 (stereo not drawn)
inactive: [1] 18.5 µM | [2] 15.8 µM | [3] 17.9 µM | [4] 19.2 µM | [5] 16.7 µM | [6] 20.1 µM | [7] 20.7 µM | [8] 17.9 µM | [9] 15.3 µM | [10] 19 µM | [11] 24.6 µM | [12] 13.6 µM | [13] 31.3 µM | [14] 17.3 µM | [15] 16.8 µM | [16] 16.6 µM | [17] 19.4 µM | [18] 16.7 µM

Cc1cn(CCCCCOC(=O)NC(CCCNC(=N)N)C(=O)O)c(=O)[nH]c1=O (stereo not drawn)
inactive: [1] 17 µM | [3] 26.1 µM | [4] 11.7 µM | [5] 37.5 µM | [6] 15.5 µM | [7] 30.3 µM | [8] 40.3 µM | [10] > 100 µM | [11] 40.8 µM | [12] > 100 µM | [13] 48.9 µM | [14] 39.4 µM | [19] 38.2 µM | [15] 35.7 µM | [16] 24.9 µM | [17] > 100 µM | [18] 50.2 µM

C[C@@H]1CC(=O)[C@@]2(C)[C@](O)(CCC3O[C@]32C)[C@@]12CC(c1ccoc1)OC2=O (stereo partly drawn)
inactive: [1] 24.9 µM | [2] 44.3 µM | [3] 65 µM | [4] 33.3 µM | [5] > 100 µM | [6] 33.8 µM | [7] > 100 µM | [8] > 100 µM | [9] 45.6 µM | [10] > 100 µM | [11] > 100 µM | [12] 68.2 µM | [13] > 100 µM | [14] 75.7 µM | [19] 66.7 µM | [15] > 100 µM | [16] 94.4 µM | [18] > 100 µM

C/C=C(/COC(C)=O)C(=O)OC1C=C(C=O)C(C)(C)C=C1C (stereo not drawn)
inactive: [1] 45.1 µM | [2] > 100 µM | [3] > 100 µM | [5] > 100 µM | [6] > 100 µM | [7] > 100 µM | [8] > 100 µM | [9] > 100 µM | [10] > 100 µM | [11] > 100 µM | [12] > 100 µM | [13] > 100 µM | [14] > 100 µM | [19] > 100 µM | [15] > 100 µM | [16] > 100 µM | [18] > 100 µM

CN(C)c1ccc(/C=C(\NC(=O)c2ccccc2)C(=O)Nc2ccccc2C(=O)NN2C(=O)CSC2c2ccc(N(C)C)cc2)cc1 (stereo not drawn)
inactive: [1] > 100 µM | [2] 94.6 µM | [3] > 100 µM | [4] > 100 µM | [5] > 100 µM | [6] > 100 µM | [7] > 100 µM | [8] > 100 µM | [9] 40.6 µM | [11] > 100 µM | [12] > 100 µM | [13] > 100 µM | [14] 80.2 µM | [19] 10.7 µM | [15] 6.37 µM | [16] > 100 µM | [17] 93.1 µM | [18] > 100 µM

CCC(C)C(=O)OC1CC2(C)C(c3ccoc3)OC(=O)CC23OC2(C)OC34C(OC(=O)C(C)C)C3(O)C(OC(=O)C5(C)OC5C)C5(C)CC3(O)C(C)(C5CC(=O)OC)C14O2 (stereo not drawn)
inactive: [1] 15.6 µM | [2] 22.8 µM | [3] 20 µM | [5] 68.2 µM | [6] 14.5 µM | [7] 51.6 µM | [8] 24.3 µM | [9] 37 µM | [10] 38.4 µM | [11] 31.8 µM | [12] 60.7 µM | [13] > 100 µM | [14] > 100 µM | [19] 36.3 µM | [15] 66.8 µM | [16] 75.5 µM | [18] 86.1 µM

COC(=O)c1ccccc1NC(=O)/C(=N\NC(C)(C)C)C(C#N)c1nc(-c2ccc([N+](=O)[O-])cc2)cs1 (stereo not drawn)
inactive: [1] > 100 µM | [2] > 100 µM | [3] > 100 µM | [4] > 100 µM | [5] > 100 µM | [6] > 100 µM | [7] > 100 µM | [8] > 100 µM | [9] > 10 µM | [10] > 100 µM | [11] > 100 µM | [12] > 100 µM | [13] > 100 µM | [14] > 100 µM | [19] > 100 µM | [15] > 100 µM | [16] > 100 µM | [18] > 100 µM
